# Measurements from patent publication US4111955A, “N-Trihalomethanesulfenyl carbamoyloximino di-sulfur heterocyclic compounds” (priority 1976, dated 1978).
# Assays:
# [1] = system: southern armyworm (Prodenia eridania, (Cram.)); assay: Southern Armyworm Leaf Spray Test; format: in vivo; set-up: key to pesticidal activity rating, Armyworm: A: excellent control; B: partial control; C: no control
# Procedure: Larvae of the southern armyworm (Prodenia eridania, (Cram.)), reared on Tendergreen bean plants at a temperature of 80°±5° F. and a relative humidity of 50±5 percent, constituted the test insects.
# The test compounds were formulated by diluting the stock suspension with water to give a suspension containing 500 parts of test compound per million parts of final formulation. Potted Tendergreen bean plants of standard height and age were placed on a revolving turntable and sprayed with 100-110 milliliters of test compound formulation by use of a DeVilbiss spray gun set at 10 psig air pressure. This application, which lasted 25 seconds, was sufficient to wet plants to run-off. As a control, 100-110 milliliters of a water-acetone-emulsifier solution containing no test compound were also sprayed on infested plants. When dry, the paired leaves were separated and each one was placed in a 9 centimeter Petri dish lined with moistened filter paper. Five randomly selected larvae were introduced into each dish and the dishes were closed. The closed dishes were labeled and held at 80°-85° F. for 3 days. Although the larvae could easily consume the whole leaf within 24 hours, no more food was added. Larvae which were unable to move the length of the body, even upon stimulation by prodding, were considered dead. Percent mortality was recorded for various concentration levels.
# (§1) In these tests the pesticidal activity of the compounds against aphid, mite, Southern Armyworm, Bean Beetle and House fly was rated as follows:
# (§2) The LD50 values shown in the above Table II were determined by testing the compositions over an appropriate concentration range obtained by serial dilution of the stock suspension with water. The percent kill was plotted on log-probit graph paper versus parts per million concentration, and the LD50 read from an eye-fitted line drawn through the resultant points.
# [2] = system: Mexican bean beetle (Epilachna varivestis, Muls.); assay: Mexican Bean Beetle Leaf Spray Test; format: in vivo; set-up: key to pesticidal activity rating, Bean beetle: A: excellent control; B: partial control; C: no control
# Procedure: Fourth instar larvae of the Mexican bean beetle (Epilachna varivestis, Muls.), reared on Tendergreen bean plants at a temperature of 80°±5° F. and 50±5 percent relative humidity, were the test insects.
# The test compounds were formulated by diluting the stock suspension with water to give a suspension containing 500 parts of test compound per million parts of final formulation. Potted Tendergreen bean plants of standard height and age were placed on a revolving turntable and sprayed with 100-110 milliliters of test compound formulation by use of a DeVilbiss spray gun set at 10 psig air pressure. This application, which lasted 25 seconds, was sufficient to wet plants to run-off. As a control, 100-110 milliliters of a water-acetone-emulsifier solution containing no test compound were also sprayed on infested plants. When dry, the paired leaves were separated and each was placed in a 9 centimeter Petri dish lined with moistened filter paper. Five randomly selected larvae were introduced into each dish, and the dishes were closed. The closed dishes were labeled and held at a temperature of 80°±5° F. for 3 days. Although the larvae could easily consume the leaf within 24 to 48 hours, no more food was added. Larvae which were unable to move the length of the body, even upon stimulation, were considered dead.
# as §1, §2
smiles,measurement,setting,value
"CN(SC(Cl)(Cl)Cl)C(=O)ON=C1CSCCS1 [2-[(N-METHYL-N-TRICHLOROMETHANESULFENYL)-CARBAMOYLOXIMINO]-1,4-DITHIANE]","pesticidal activity rating, Armyworm","[1]; 500 parts per million, 3 days",A
same,LC50,"[1]; Spodoptera eridania, 72 h, Table II, read-out: Insect Toxicity, LD50, Armyworm",52 µg/mL
same,LC50,"[2]; Epilachna varivestis, 72 h, leaf spray, Table II, read-out: Insect Toxicity, LD50, Mexican Bean beetle",10 µg/mL
same,insect toxicity on bean-beetle relative to the methylcarbamoyl composition,[2]; from LD50 values of Table II,five-fold improvement
same,"pesticidal activity rating, Bean beetle","[2]; leaf spray, 500 parts per million, 3 days",A
